US20050287070A1, “Ligand-specific opening of a gated-porin channel in the outer membrane of living bacteria” (priority 1997, published 2005)

Target: T1, Escherichia coli ferric enterobactin receptor, FepA (FepAE280C) (Escherichia coli, UniProt P05825, E302C)
T1 construct: expressed in transfected cells; host or cells: E. coli KDF541 (fepA, tonB+) carrying pFepAE280C; also KDF570 (fepA, tonB)
Format: cell-based
Procedure: Indicated at (A) are ESR analyses of MTSL-labeled bacteria expressing FepAE280C, KDF541(9) containing pITS449 of pFepAE280C was grown in LB medium and subcultured into T medium plus appropriate nutritional supplements at 1%. After 16 hours, bacteria were harvested and suspended in labeling buffer [50 mM Mops and 60 mM NaCl (PH7.5)]. Spin labels were added (to a final concentration of 20 μM MTSL or 10 μM MAL6) and incubated 2 hours at room temperature with shaking, and the cells were washed twice with reaction buffer containing 0.05% Tween-20 and once with reaction buffer alone. […] For ESR analysis, 10^10 cells were suspended in 100 μl of 0.01 M NaHPO4 (pH 6.9) containing 0.4% glucose. X-band spectra of MTSL-labeled KDF541/pFepAE280C (top), KDF541/pITS449 (fepA^+; center), or KDF541 (fepA; bottom) were recorded on a Bruker EMX spectrometer, operating at 9.8 GHz with a total scan range of 150 G and 100-kHz modulation frequency, at 4° C. in a quartz flat cell. Peaks a and b show the position of strongly and weakly immobilized spin labels, respectively. Indicated at (B) are [^125I]-labeled protein A Western blots with anti-MAL6 sera. MAL6 was coupled to bovine serum albumin (BSA) and ovalbumin (OVA). New Zealand White rabbits were immunized with BSA-MAL6 conjugates [100 μg/week for 1 month (29)], and polyclonal serum was collected in week 5 and assayed for antigen specificity by enzyme-linked immunosorbent assay (30) and Western blots against BSA, BSA-MAL6, OVA, and OVA-MAL6 (lanes 1 through 4, respectively). Lysates (5×10^7 cells) of KDF541, KDF541/pITS449, and KDF541/pFepAE280C, previously labeled with MAL6, as described above, were reacted with the anti-MAL6 polyclonal serum (lanes 5 through 7, respectively). Arrows indicate the positions of (top to bottom) FepAE280C-MAL6, BSA-MAL6, BSA, and OVA-MAL6.
KDF541/pFepAE280C was grown, spin-labeled, and prepared as described in FIG. 1. Signal-averaged X-band spectra (six field sweeps collected over an 8-minute period) of spin-labeled bacteria were recorded at 4° C. as indicated at (A) and again after warming the flat cell to 37° C. [indicated at (B) (31)]. A fresh aliquot of cells from the same labeling reaction was suspended in saturating ferric enterobactin (300 μM) at 4° C. as indicated at (C), the sample was warned to 37° C., and spectra were recorded after 5 minutes, as indicated at (D), and 15 minutes, as indicated at (E) (midpoints of the signal-average measurements). The bacteria were then cooled again to 4° C. for 30 minutes, and spectra were recorded, as indicated at (F). Each of the spectra was double-integrated, as indicated at (G), from 3405 to 3555 G to determine the total number of MTSL spins (O) and from 3443 to 3477 G to determine the spins derived from the strongly immobilized (a) and weakly immobilized (b) peaks (●).
KDF541/pFepAE280C was grown, spin-labeled, and prepared as described in FIG. 1. Singla-averaged X-band spectra (six field sweeps collected over an 8-minute period) of spin-labeled bacteria were recorded in the presence of saturating levels of colicin B (10 μM) at 4° C., as indicated at (A). The sample was warmed to 37° C. and analyzed after 5 minutes, as indicated at (B), 15 minutes, as indicated at (C), and 75 minutes, as indicated at (D) (midpoints of signal average measurement before recooling to 4° C., as indicated at (E). The same strain was grown in minimal media and starved for glucose for 2 hours to deplete its energy stores, spin-labeled, and exposed to colicin B (10 μM) at 37° C. for 30 minutes, as indicated at (F). The spectra were double-integrated, as indicated at (G), as described in FIG. 2.
KDF541/pFepAE280C was grown, spin-labeled, and prepared as described in FIG. 1.

[1] = ferric enterobactin in excess, 37° C.

T1 sequence (P05825 23-746 E302C): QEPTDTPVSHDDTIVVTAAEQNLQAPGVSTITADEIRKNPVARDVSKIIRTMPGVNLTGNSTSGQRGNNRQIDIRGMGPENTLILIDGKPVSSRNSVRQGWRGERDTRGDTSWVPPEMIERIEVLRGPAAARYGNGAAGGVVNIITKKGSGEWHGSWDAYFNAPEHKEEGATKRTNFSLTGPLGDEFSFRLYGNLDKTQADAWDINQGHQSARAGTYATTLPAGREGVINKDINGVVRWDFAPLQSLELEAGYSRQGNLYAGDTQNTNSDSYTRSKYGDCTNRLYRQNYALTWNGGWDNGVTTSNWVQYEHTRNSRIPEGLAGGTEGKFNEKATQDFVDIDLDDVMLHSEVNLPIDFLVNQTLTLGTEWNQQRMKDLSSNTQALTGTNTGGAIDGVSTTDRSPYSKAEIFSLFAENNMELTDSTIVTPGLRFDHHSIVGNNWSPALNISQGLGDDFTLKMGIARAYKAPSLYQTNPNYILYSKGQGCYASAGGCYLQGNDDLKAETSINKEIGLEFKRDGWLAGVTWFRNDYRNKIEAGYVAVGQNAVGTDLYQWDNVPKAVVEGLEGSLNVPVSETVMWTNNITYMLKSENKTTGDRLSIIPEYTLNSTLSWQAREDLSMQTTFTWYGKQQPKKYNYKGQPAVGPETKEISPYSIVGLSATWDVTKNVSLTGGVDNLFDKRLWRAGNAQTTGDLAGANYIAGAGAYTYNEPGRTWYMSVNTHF

Molecule	period over which the burst of spin-label motion peaked and receded (ferric enterobactin 300 μM, 37° C., continuous monitoring at 3472 G) [min]	effect on MTSL mobility (weakly immobilized peak at 3472 G) monitored over time (ferric enterobactin 300 μM, KDF541/pFepAE280C, glucose present, warmed from 4° C. to 37° C.)	time for first surge in motion to decay [1] [s]	time for first surge in motion to peak [1] [s]	time over which immobilization of MTSL at residue 280 became more severe (cells with bound colicin warmed to 37° C.) [min]	effect on MTSL mobility during continual incubation at 4° C. (colicin bound, 4° C., over the course of 1 hour)	effect on MTSL mobility in signal-averaged X-band spectra (saturating colicin B (10 μM), 37° C.)
O=C(N[C@H]1COC(=O)[C@@H](NC(=O)c2cccc([O-])c2[O-])COC(=O)[C@@H](NC(=O)c2cccc([O-])c2[O-])COC1=O)c1cccc([O-])c1[O-].[Fe+3] [ferric enterobactin]	5	stimulated a burst of motion	140	140			
colicin B					30	did not take place	progressively eliminated weakly immobilized spins
